Results on five compounds are retold here after US20190142800A1, “SYNERGISTIC ANTIFUNGAL COMPOSITIONS AND METHODS THEREOF” (VYOME THERAPEUTICS LIMITED, priority 2016, published 2019).

One may read the MIC as the lowest concentration found to suppress growth.

For assay [1], the system named is azole resistant C. albicans MTCC 227. The assay is described as follows: Checkerboard assay on azole resistant C. albicans MTCC 227. In kind it is cell-based, Candida albicans. The note with it: for MIC: Candida albicans, MTCC227, agent alone. The procedure: (§1) The synergy is measured by determining the fractional inhibitory concentration (FIC) value of the combination. This experimental set up, called checkerboard method, allows measurement of a desired effect (inhibition of fungal growth in this case) at different combinations of various concentrations of the two agents (antifungal agent and fatty acid/ester). […] No agent is added to the penultimate column on the right and the bottom row. The final column on the right is used for growth control (only inoculum in broth) and sterility control (broth alone, no inoculum). […] FIC values for both agents in a particular well were calculated in this way followed by determination of the FIC index (sum of the FICs of each drug in the concerned well). […] Agents Chemother.
(§2) Using the checkerboard layout experimental setup described above (FIG. 1A), various medium-chain fatty acids were tested for their ability to potentiate the activity of a known antifungal agent. Concentrations above and below the MIC of each test agent were tested using serial dilution. The same procedure was expanded to test combinations of various medium-chain fatty acids C-1 to C-14 (such caprylic acid, undecylenic acid and lauric acid) and esters thereof, with antifungal agents from various classes including azoles, allylamines, benzylamines, zinc pyrithione and piroctone olamine against both susceptible and resistant Trichophyton spp. (filamentous fungus) and Candida spp. (yeast).
(§3) Potentiation of the activity of antimycotic agents using ester derivatives of medium chain fatty acids was tested in a standard, well accepted in vitro assay system to check for synergy. This experimental set up, called checkerboard method, allows measurement of a desired effect (inhibition of fungal growth in this case) at different combinations of various concentrations of two agents. A chosen medium chain fatty acid (C-1 to C-14) or its ester derivative was tested for its ability to potentiate the activity of a known antifungal agent (various classes) using the checkerboard layout. Various concentrations above and below the MIC of each test agent were tested using serial dilution in Sabouraud dextrose broth. […] FIC values for both test agents in a particular well are calculated in this way followed by determination of the FIC index (sum of the FICs of each drug in the concerned well).

For assay [2], the system named is Trichophyton rubrum (ATCC-28188). Description: Checkerboard assay of fatty acid/ester with antifungals on Trichophyton rubrum (ATCC 28188). It counts as cell-based. Further details: key to FIC index: FIC index = sum of FICs; FIC = agent conc in well / agent MIC. To be noted: for MIC: Trichophyton rubrum, ATCC28188, agent alone.
For assay [3], the system named is terbinafine resistant Trichophyton interdigitale (GTB-2S). Description: Checkerboard assay on terbinafine resistant Trichophyton interdigitale (GTB-2S). It counts as cell-based. The note with it: for MIC: Trichophyton interdigitale. On the procedure: as §1, §2, §3
The mark [4] stands for this setting: Table 12, undecylenic acid (C11) series.
Where [5] appears, read: Table 13, lauric acid (C12) series.
The mark [6] stands for this setting: agent's MIC in combination antifungal + caprylic acid (partner: other agent of same combination no.).
Where [7] appears, read: agent's MIC in combination antifungal + glyceryl monocaprylate (partner: other agent of same combination no.).
[8] abbreviates: agent's MIC in combination antifungal + propylene glycol monocaprylate (partner: other agent of same combination no.).
The mark [9] stands for this setting: antifungal in combination with caprylic acid.
[10] abbreviates: antifungal in combination with glyceryl monocaprylate.
[11] abbreviates: antifungal in combination with lauric acid.
Setting [12] is: antifungal in combination with propylene glycol monocaprylate.
Where [13] appears, read: antifungal in combination with propylene glycol monolaurate.
The mark [14] stands for this setting: antifungal in combination with undecylenic acid.
The mark [15] stands for this setting: combination antifungal + caprylic acid.
Where [16] appears, read: combination antifungal + glyceryl monocaprylate.
[17] abbreviates: combination antifungal + propylene glycol monocaprylate.
The mark [18] stands for this setting: agent's MIC in combination terbinafine or butenafine + caprylic acid.
The mark [19] stands for this setting: agent's MIC in combination terbinafine or butenafine + glyceryl monocaprylate.
Where [20] appears, read: combination terbinafine or butenafine + caprylic acid.
Setting [21] is: combination terbinafine or butenafine + glyceryl monocaprylate.
Setting [22] is: in combination with caprylic acid.
Where [23] appears, read: in combination with glyceryl monocaprylate.
[24] abbreviates: in combination with propylene glycol monocaprylate.

For `CC(=O)N1CCN(c2ccc(OCC3COC(Cn4ccnc4)(c4ccc(Cl)cc4Cl)O3)cc2)CC1` (centres unmarked) [Ketoconazole], the MIC in assay [1] (Table 9, caprylic acid (C8) series) was determined as 64 µg/mL; in assay [1] (Table 10, propylene glycol monocaprylate series) it was 128 µg/mL; in assay [1] (Table 11, glyceryl monocaprylate series) it was 128 µg/mL; in assay [1] (setting [4]), 128 µg/mL; in assay [1] (setting [5]), 64 µg/mL; in assay [1] (Table 14, propylene glycol monolaurate series) it was 128 µg/mL. For the same compound, the MIC in assay [2] (Table 1, caprylic acid series) came out at 0.312 µg/mL; in assay [2] (Table 2, propylene glycol monocaprylate series), 0.3 µg/mL; in assay [2] (Table 3, glyceryl monocaprylate series) it was 0.321 µg/mL. In addition, the “Combination MIC” value in assay [1] (setting [6]) worked out at 0.25 µg/mL; in assay [1] (setting [7]), 2 µg/mL; in assay [1] (agent's MIC in combination antifungal + lauric acid (partner: other agent of same combination no.)), 0.25 µg/mL; in assay [1] (setting [8]) it was 8 µg/mL; in assay [1] (agent's MIC in combination antifungal + propylene glycol monolaurate (partner: other agent of same combination no.)) it was 32 µg/mL; in assay [1] (agent's MIC in combination antifungal + undecylenic acid (partner: other agent of same combination no.)), 1 µg/mL. The figures for the “Combination MIC” value in assay [2] (setting [6]), in assay [2] (setting [7]) and in assay [2] (setting [8]) were 0.0781 µg/mL, 0.009 µg/mL and 0.0375 µg/mL, respectively. Besides, the FIC index in assay [1] (setting [9]) worked out at 0.253; in assay [1] (setting [10]) it was 0.265; in assay [1] (setting [11]), 0.127; in assay [1] (setting [12]) it was 0.187; in assay [1] (setting [13]), 0.281; in assay [1] (setting [14]) it was 0.132. Besides, the FIC index is listed as 0.5 in assay [2] (setting [9]), 0.531 in assay [2] (setting [10]) and 0.625 in assay [2] (setting [12]). Besides, the Interaction entry in assay [1] (setting [9]), in assay [1] (setting [10]), in assay [1] (setting [11]), in assay [1] (setting [12]), in assay [1] (setting [13]) and in assay [1] (setting [14]) was “Synergistic (Combinations that gave FIC indices less than 1 were designated “synergistic”)” in each case. For the same compound, the Interaction entry in assay [2] (setting [9]), in assay [2] (setting [10]) and in assay [2] (setting [12]) was “Synergistic (Combinations that gave FIC indices less than 1 were designated “synergistic”)” throughout. Moreover, the FIC in assay [1] (setting [15]) turned out to be 0.003; in assay [1] (setting [16]), 0.0156; in assay [1] (combination antifungal + lauric acid), 0.003; in assay [1] (setting [17]) it was 0.0625; in assay [1] (combination antifungal + propylene glycol monolaurate) it was 0.25; in assay [1] (combination antifungal + undecylenic acid), 0.0078. Moreover, the FIC amounted to 0.25 in assay [2] (setting [15]), 0.031 in assay [2] (setting [16]) and 0.125 in assay [2] (setting [17]).
Regarding `CN(Cc1ccc(C(C)(C)C)cc1)Cc1cccc2ccccc12` [Butenafine], the MIC in assay [3] (agent alone, Table 7) worked out at 7.5 µg/mL. Besides, the “Combination MIC” value is 0.468 µg/mL in assay [3] (setting [18]), 0.234 µg/mL in assay [3] (setting [19]) and 0.117 µg/mL in assay [3] (agent's MIC in combination terbinafine or butenafine + propylene glycol monocaprylate). The FIC amounted to 0.0625 in assay [3] (setting [20]), 0.0312 in assay [3] (setting [21]) and 0.016 in assay [3] (combination terbinafine or butenafine + propylene glycol monocaprylate). In addition, the FIC index in assay [3] (setting [22]) turned out to be 0.562; in assay [3] (setting [23]), 0.531; in assay [3] (setting [24]), 0.516. Also, the Interaction result in assay [3] (setting [22]), in assay [3] (setting [23]) and in assay [3] (setting [24]) was “Synergistic (Combinations that gave FIC indices less than 1 were designated “synergistic”)” each time.
Take `C=CCCCCCCCCC(=O)O` [Undecylenic acid]: the MIC in assay [1] (setting [4]) was determined as 500 µg/mL; in assay [2] (Table 4, undecylenic acid (C11) series), 31.3 µg/mL. Also, in assay [2] (agent alone, Table 4, undecylenic acid (C11) series), the “Agent MIC” value stood at 62.5 µg/mL.
`CN(C/C=C/C#CC(C)(C)C)Cc1cccc2ccccc12` [Terbinafine]: the minimal inhibitory concentration (MIC) in assay [3] (agent alone, Table 7) amounted to 30 µg/mL. The “Agent MIC” value in assay [3] (agent alone, Table 7) was 15 µg/mL. For the same compound, the “Combination MIC” value was 0.117 µg/mL in assay [3] (setting [18]) and 0.468 µg/mL in assay [3] (setting [19]). In addition, the FIC in assay [3] (setting [20]) is 0.0078; in assay [3] (setting [21]), 0.0312. Further, the FIC index amounted to 0.5007 in assay [3] (setting [22]) and 0.531 in assay [3] (setting [23]). Besides, the Interaction entry in assay [3] (setting [22]), in assay [3] (setting [23]) and in assay [3] (setting [24]) was “Synergistic (Combinations that gave FIC indices less than 1 were designated “synergistic”)” each time.
With `CCCCCCCCCCCC(=O)O` [Lauric acid], the minimum inhibitory concentration (MIC) turned out to be 3120 µg/mL in assay [1] (setting [5]) and 15.6 µg/mL in assay [2] (Table 5, lauric acid (C12) series).
